Measurements taken from patent publication US20240270740A1, “INHIBITORS OF CYCLIC GMP-AMP SYNTHASE AND USES THEREOF” (Ventus Therapeutics U.S., Inc., priority 2022, published 2024).

What was measured:
[1] = biological target: T1, hcGAS (Homo sapiens, UniProt Q8N884); assay: hcGAS LCMS assay (direct measurement of cGAMP production); assay type: biochemical; conditions: for IC50: 0.5 nM hcGAS, 100 μM ATP, 100 μM GTP, 25 nM dsDNA, 4 h incubation
Procedure, shortened: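 Direct LC/MS readout of cGAMP formed: 4-h enzyme–substrate incubation with compound, stopped by acetonitrile/water quench carrying isotope-labelled cGAMP (0.15 mM) as standard. Potency reported as IC50 ranges.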

[2] = biological target: T1, hcGAS; assay: hcGAS Kinase-Glo assay (ATP depletion); assay type: biochemical; conditions: for IC50: 40 nM hcGAS, 100 μM ATP, 100 μM GTP, 25 nM dsDNA, 3 h incubation
Procedure: cGAS catalyzes the cyclization of ATP and GTP to produce cGAMP, which is the activating ligand of STING. Human cGAS (hcGAS) inhibition can thus be quantified by measuring how much cGAMP is formed either indirectly, by monitoring ATP-depletion as in the hcGAS Kinase-Glo assay (as described below), or directly, such as using the hcGAS LCMS assay (as described below).
(i) hcGAS Kinase-Glo Assay
Compounds were tested for their human-cGAS […] inhibition activity using the methodology reported in Lama et al., “Development of human cGAS-specific small molecule inhibitors for repression of dsDNA-triggered interferon expression”, Nature Communications 10, Article number: 2261 (2019), with slight changes to some conditions as shown in Table B.
The results of the assay, expressed in IC50 values, are reported in Table D with the following designations: A represents an IC50 value<0.01 μM; B represents an IC50 value≥0.01 μM and <0.03 μM; C represents an IC50 value≥0.03 μM and <0.1 μM; D represents an IC50 value≥0.1.

[3] = compared with Compound 103 (without —CH2OCH3)

T1 sequence (Q8N884 whole entry): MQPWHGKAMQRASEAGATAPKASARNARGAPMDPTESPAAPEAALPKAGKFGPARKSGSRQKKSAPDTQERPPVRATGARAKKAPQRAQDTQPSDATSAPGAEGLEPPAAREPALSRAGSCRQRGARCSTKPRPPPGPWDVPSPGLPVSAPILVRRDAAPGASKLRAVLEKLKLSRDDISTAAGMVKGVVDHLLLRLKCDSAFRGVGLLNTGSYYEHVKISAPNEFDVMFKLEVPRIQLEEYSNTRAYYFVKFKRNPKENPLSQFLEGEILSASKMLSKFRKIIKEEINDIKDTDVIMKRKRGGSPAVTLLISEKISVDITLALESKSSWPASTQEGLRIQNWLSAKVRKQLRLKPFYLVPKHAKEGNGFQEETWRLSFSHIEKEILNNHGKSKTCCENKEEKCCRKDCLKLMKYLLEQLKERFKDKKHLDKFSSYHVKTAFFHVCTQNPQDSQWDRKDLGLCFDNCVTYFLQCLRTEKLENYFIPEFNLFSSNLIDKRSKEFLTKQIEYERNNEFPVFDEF

Row | Molecule | IC50 [1] [nM] | IC50 [2] [nM] | inhibitory activity in hcGAS LCMS assay [1, 3] | inhibitory activity in hcGAS Kinase glo assay [2, 3]
1 | COc1c(N[C@@H]2CCC[C@@H]2O)cc(C(=O)Nc2nnc(-c3sccc3Cl)s2)oc1=O (racemic) [Rac-7, N-(5-(3-chlorothiophen-2-yl)-1,3,4-thiadiazol-2-yl)-4-(((cis)-2-hydroxycyclopentyl)amino)-3-methoxy-2-oxo-2H-pyran-6-carboxamide] | < 5 | < 10 | – | –
2 | 3-methoxy-4-(((1R,2S)-2-methoxycyclobutyl)amino)-N-(5-(5-methyl-1H-pyrazol-1-yl)-1,3,4-thiadiazol-2-yl)-2-oxo-2H-pyran-6-carboxamide [Rac-67] | 5 to 20 | 10 to 30 | – | –
3 | COc1c(N2CCCC2=O)cc(C(=O)Nc2nnc(-n3nccc3C)s2)oc1=O [Compound 42, 3-methoxy-N-(5-(5-methyl-1H-pyrazol-1-yl)-1,3,4-thiadiazol-2-yl)-2-oxo-4-(2-oxopyrrolidin-1-yl)-2H-pyran-6-carboxamide] | < 5 | < 10 | – | –
4 | COc1c(N2CC[C@H](OC)C2)cc(C(=O)Nc2nnc(-n3nccc3C)s2)oc1=O [Compound 57, (S)-3-methoxy-4-(3-methoxypyrrolidin-1-yl)-N-(5-(5-methyl-1H-pyrazol-1-yl)-1,3,4-thiadiazol-2-yl)-2-oxo-2H-pyran-6-carboxamide] | 5 to 20 | 10 to 30 | – | –
5 | COc1c(N[C@H]2CC[C@H](O)C2)cc(C(=O)Nc2nnc(-n3nccc3C)s2)oc1=O (racemic) [Rac-6, 4-(((1S,3S)-3-hydroxycyclopentyl)amino)-3-methoxy-N-(5-(5-methyl-1H-pyrazol-1-yl)-1,3,4-thiadiazol-2-yl)-2-oxo-2H-pyran-6-carboxamide] | 5 to 20 | 10 to 30 | – | –
6 | COc1c(N[C@@H]2CCC[C@@H]2O)cc(C(=O)Nc2nnc(-n3nccc3C)s2)oc1=O (racemic) [Rac-23, 4-(((cis)-2-hydroxycyclopentyl)amino)-3-methoxy-N-(5-(5-methyl-1H-pyrazol-1-yl)-1,3,4-thiadiazol-2-yl)-2-oxo-2H-pyran-6-carboxamide] | < 5 | 10 to 30 | – | –
7 | COc1c(N[C@H]2CC[C@@H](O)CC2)cc(C(=O)Nc2nnc(-n3nccc3C)s2)oc1=O [Compound 220] | 5 to 20 | 10 to 30 | – | –
8 | COc1c(N[C@H]2CCOC2)cc(C(=O)Nc2nnc(-n3nccc3C)s2)oc1=O [Compound 185, (S)-3-methoxy-N-(5-(5-methyl-1H-pyrazol-1-yl)-1,3,4-thiadiazol-2-yl)-2-oxo-4-((tetrahydrofuran-3-yl)amino)-2H-pyran-6-carboxamide] | 5 to 20 | 30 to 100 | – | –
9 | COC[C@@H](C)Nc1cc(C(=O)Nc2nnc(-n3nccc3C)s2)oc(=O)c1OC [Compound 121, (R)-3-methoxy-4-((1-methoxypropan-2-yl)amino)-N-(5-(5-methyl-1H-pyrazol-1-yl)-1,3,4-thiadiazol-2-yl)-2-oxo-2H-pyran-6-carboxamide] | 5 to 20 | 10 to 30 | – | –
10 | COc1c(N2C[C@H](OC)[C@@H](OC)C2)cc(C(=O)Nc2nnc(-n3nccc3C)s2)oc1=O (racemic) [Rac-92, 4-((3S,4S)-3,4-dimethoxypyrrolidin-1-yl)-3-methoxy-N-(5-(5-methyl-1H-pyrazol-1-yl)-1,3,4-thiadiazol-2-yl)-2-oxo-2H-pyran-6-carboxamide] | 5 to 20 | 10 to 30 | – | –
11 | COc1c(NC[C@@H](C)OC)cc(C(=O)Nc2nnc(-n3nccc3C)s2)oc1=O [Compound 119, (R)-3-methoxy-4-((2-methoxypropyl)amino)-N-(5-(5-methyl-1H-pyrazol-1-yl)-1,3,4-thiadiazol-2-yl)-2-oxo-2H-pyran-6-carboxamide] | 5 to 20 | 10 to 30 | – | –
12 | COCC(C)(C)Nc1cc(C(=O)Nc2nnc(-n3nccc3C)s2)oc(=O)c1OC [Compound 76, 3-methoxy-4-((1-methoxy-2-methylpropan-2-yl)amino)-N-(5-(5-methyl-1H-pyrazol-1-yl)-1,3,4-thiadiazol-2-yl)-2-oxo-2H-pyran-6-carboxamide] | 5 to 20 | 10 to 30 | – | –
13 | COc1c(N2CC[C@@H](O)C2)cc(C(=O)Nc2nnc(-n3nccc3C)s2)oc1=O [Compound 30, (R)-4-(3-hydroxypyrrolidin-1-yl)-3-methoxy-N-(5-(5-methyl-1H-pyrazol-1-yl)-1,3,4-thiadiazol-2-yl)-2-oxo-2H-pyran-6-carboxamide] | 5 to 20 | 10 to 30 | – | –
14 | COc1c(NC(C)C)cc(C(=O)Nc2nnc(-n3nccc3C)s2)oc1=O [Compound 179, 4-(isopropylamino)-5-methoxy-N-[5-(5-methylpyrazol-1-yl)-1,3,4-thiadiazol-2-yl]-6-oxopyran-2-carboxamide] | 5 to 20 | 30 to 100 | – | –
15 | COc1c(N[C@H]2CC[C@H](OC)CC2)cc(C(=O)Nc2nnc(-n3nccc3C)s2)oc1=O [Compound 11, 3-methoxy-4-(((1,4-trans)-4-methoxycyclohexyl)amino)-N-(5-(5-methyl-1H-pyrazol-1-yl)-1,3,4-thiadiazol-2-yl)-2-oxo-2H-pyran-6-carboxamide] | 20 to 60 | 10 to 30 | – | –
16 | COc1c(N2CC[C@H](S(C)(=O)=O)C2)cc(C(=O)Nc2nnc(-n3nccc3C)s2)oc1=O [Compound 60, (S)-3-methoxy-N-(5-(5-methyl-1H-pyrazol-1-yl)-1,3,4-thiadiazol-2-yl)-4-(3-(methylsulfonyl)pyrrolidin-1-yl)-2-oxo-2H-pyran-6-carboxamide] | 5 to 20 | 10 to 30 | – | –
17 | COC[C@H](Nc1cc(C(=O)Nc2nnc(-n3nccc3C)s2)oc(=O)c1OC)c1ccccc1 [Compound 114, (R)-3-methoxy-4-((2-methoxy-1-phenylethyl)amino)-N-(5-(5-methyl-1H-pyrazol-1-yl)-1,3,4-thiadiazol-2-yl)-2-oxo-2H-pyran-6-carboxamide] | < 5 | < 10 | improved inhibitory activity | improved inhibitory activity
18 | COC[C@H]1CCCN1c1cc(C(=O)Nc2nnc(-n3nccc3C)s2)oc(=O)c1OC [Compound 38, (R)-3-methoxy-4-(2-(methoxymethyl)pyrrolidin-1-yl)-N-(5-(5-methyl-1H-pyrazol-1-yl)-1,3,4-thiadiazol-2-yl)-2-oxo-2H-pyran-6-carboxamide] | 5 to 20 | 10 to 30 | – | –
19 | COc1c(NCCO)cc(C(=O)Nc2nnc(-n3nccc3C)s2)oc1=O [Compound 130, 4-((2-hydroxyethyl)amino)-3-methoxy-N-(5-(5-methyl-1H-pyrazol-1-yl)-1,3,4-thiadiazol-2-yl)-2-oxo-2H-pyran-6-carboxamide] | 20 to 60 | 30 to 100 | – | –
20 | COc1c(N(C)C)cc(C(=O)Nc2nnc(-n3nccc3C)s2)oc1=O [Compound 106, 4-(dimethylamino)-3-methoxy-N-(5-(5-methyl-1H-pyrazol-1-yl)-1,3,4-thiadiazol-2-yl)-2-oxo-2H-pyran-6-carboxamide] | 20 to 60 | 30 to 100 | – | –
21 | COc1c(N[C@H]2CC[C@H](OC)C2)cc(C(=O)Nc2nnc(-n3nccc3C)s2)oc1=O (racemic) [Rac-109, 3-methoxy-4-(((trans)-3-methoxycyclopentyl)amino)-N-(5-(5-methyl-1H-pyrazol-1-yl)-1,3,4-thiadiazol-2-yl)-2-oxo-2H-pyran-6-carboxamide] | 5 to 20 | 10 to 30 | – | –
22 | COc1c(N[C@H]2CCC[C@H]2OC)cc(C(=O)Nc2nnc(-n3nccc3C)s2)oc1=O (racemic) [Rac-14, 3-methoxy-4-(((1S,2R)-2-methoxycyclopentyl)amino)-N-(5-(5-methyl-1H-pyrazol-1-yl)-1,3,4-thiadiazol-2-yl)-2-oxo-2H-pyran-6-carboxamide] | 5 to 20 | 10 to 30 | – | –
23 | COc1c(N[C@H]2CCS(=O)(=O)C2)cc(C(=O)Nc2nnc(-n3nccc3C)s2)oc1=O [Compound 62, (S)-4-((1,1-dioxidotetrahydrothiophen-3-yl)amino)-3-methoxy-N-(5-(5-methyl-1H-pyrazol-1-yl)-1,3,4-thiadiazol-2-yl)-2-oxo-2H-pyran-6-carboxamide] | 5 to 20 | 10 to 30 | – | –
24 | COc1c(NCCO)cc(C(=O)Nc2nnc(-c3c(Cl)ccn3C)s2)oc1=O [Compound 129, N-(5-(3-chloro-1-methyl-1H-pyrrol-2-yl)-1,3,4-thiadiazol-2-yl)-4-((2-hydroxyethyl)amino)-3-methoxy-2-oxo-2H-pyran-6-carboxamide] | 5 to 20 | < 10 | – | –
25 | COc1c(N2CC[C@@H](OC)C2)cc(C(=O)Nc2nnc(-n3nccc3C)s2)oc1=O [Compound 31, (R)-5-methoxy-4-(3-methoxypyrrolidin-1-yl)-N-(5-(5-methyl-1H-pyrazol-1-yl)-1,3,4-thiadiazol-2-yl)-6-oxo-6H-pyran-2-carboxamide] | 5 to 20 | 10 to 30 | – | –
26 | COc1c(NC23CC(OC)(C2)C3)cc(C(=O)Nc2nnc(-n3nccc3C)s2)oc1=O [Compound 111, 3-methoxy-4-((3-methoxybicyclo[1.1.1]pentan-1-yl)amino)-N-(5-(5-methyl-1H-pyrazol-1-yl)-1,3,4-thiadiazol-2-yl)-2-oxo-2H-pyran-6-carboxamide] | 5 to 20 | 10 to 30 | – | –
